Experiments:
CK1δ = biological target: T1, CK1δ (Homo sapiens, UniProt P48730); test: CK1δ inhibition (EC50); Bmal1-dLuc or Per2-dLuc U2OS luminescence rhythm period assay; assay type: cell-based; conditions: Table 3
T1 construct: endogenous in cells; host or cells: Bmal1-dLuc or Per2-dLuc U2OS cells
Procedure: Bmall-dLuc or Per2-dLuc U2OS cells were suspended in the culture medium (DMEM supplemented with 10% fetal bovine serum, 0.29 mg/mL L-glutamine, 100 units/mL penicillin, and […] streptomycin) and plated onto 96-well white solid-bottom plates at 200 μL (10,000 cells) per well. After 2 days, 100 μL of the explant medium (DMEM supplemented with 2% B27, 10 mM HEPES, 0.38 mg/mL sodium bicarbonate, 0.29 mg/mL L-glutamine, 100 units/mL penicillin, […], 0.1 mg/mL gentamicin, and 1 mM luciferin, pH 7.2) was dispensed to each well, followed by the application of 1 μL of a compound of the present application (dissolved in DMSO; final concentration was 0.7% in DMSO). The plate was covered with an optically clear film and set to microplate reader (Infinite M200, Tecan).

wild type CK1δ = wild type CK1δ (Homo sapiens, UniProt P48730); test: CK1δ kinase assay (Kinase-Glo); assay type: biochemical; conditions: 10 μM ATP, 2 nM wild type CK1δ, 85 min at 25° C.
Procedure: The reaction mixture was incubated for 85 min at 25° C.; detection was carried out as described for the Kinase-Glo Assay (Promega). Luminescent output was measured on the Perkin Elmer Envision plate reader (PerkinElmer, Waltham, MA).

[1] = Intrinsic clearance in liver microsomes (mouse); assay type: in vitro ADME; conditions: Mouse liver microsomes 0.5 mg/mL, 2 μM compound, 37° C.; for microsomal CLint at 2 μM: read-out: in vitro CLint (μL/min/mg protein); for half-life at 2 μM: read-out: in vitro t1/2
Procedure: (§1) • 1. The master solution was prepared according to Table 5.
(§2) • 2. Three separated experiments were performed as follows. a) With NADPH: 10 μL of 20 mg/mL liver microsomes and 40 μL of 10 mM NADPH were added to the incubations. The final concentrations of microsomes and NADPH were 0.5 mg/mL and 1 mM, respectively. b) Without NADPH: 10 μL of 20 mg/mL liver microsomes and 40 μL of ultra-pure H2O were added to the incubations. The final concentration of microsomes was 0.5 mg/mL. c) Heat-inactivated microsomes without NADPH: 10 μL of 20 mg/mL heat-inactivated liver microsomes and 40 μL of ultra-pure H2O were added to the incubations. The final concentration of microsomes was 0.5 mg/mL. • 3. The reaction was started with the addition of 4 μL of 200 μM test compound solution or control compound solution at the final concentration of 2 μM and carried out at 37° C. • 4. Aliquots of 50 μL were taken from the reaction solution at 0, 15, 30, 45 and 60 min. […] Samples were centrifuged at 3, 220 g for 40 minutes. […] Data Analysis
(§3) Peak areas were determined from extracted ion chromatograms. The slope value, k, was determined by linear regression of the natural logarithm of the remaining percentage of the parent drug vs. incubation time curve.
(§4) The in vitro half-life (in vitro t1/2) was determined from the slope value:
(§5) Conversion of the in vitro t1/2 (min) into the in vitro intrinsic clearance (in vitro CLint, in μL/min/mg protein) was done using the following equation (mean of duplicate determinations): […]

[2] = Intrinsic clearance in liver microsomes (human); assay type: in vitro ADME; conditions: Human liver microsomes 0.5 mg/mL, 2 μM compound, 37° C.; for microsomal CLint at 2 μM: read-out: in vitro CLint (μL/min/mg protein); for half-life at 2 μM: read-out: in vitro t1/2
Procedure: as §1, §2, §3, §4, §5

T1 sequence (P48730 whole entry): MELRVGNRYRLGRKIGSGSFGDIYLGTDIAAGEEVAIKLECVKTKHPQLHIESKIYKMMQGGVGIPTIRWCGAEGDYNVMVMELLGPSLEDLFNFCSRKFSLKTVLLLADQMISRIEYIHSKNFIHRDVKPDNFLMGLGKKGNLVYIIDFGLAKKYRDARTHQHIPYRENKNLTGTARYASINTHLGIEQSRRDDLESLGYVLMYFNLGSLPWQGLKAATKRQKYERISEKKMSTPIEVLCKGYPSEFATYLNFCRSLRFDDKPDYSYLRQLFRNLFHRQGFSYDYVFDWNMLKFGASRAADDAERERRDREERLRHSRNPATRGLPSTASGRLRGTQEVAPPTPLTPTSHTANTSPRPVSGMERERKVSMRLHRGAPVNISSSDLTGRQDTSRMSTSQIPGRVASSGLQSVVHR
Sequence of wild type CK1δ (P48730 whole entry): as above

EC50 (CK1δ) [nM] | IC50 (wild type CK1δ) [nM] | microsomal CLint at 2 μM [1] [µL/min/mg] | half-life at 2 μM [1] [min] | microsomal CLint at 2 μM [2] [µL/min/mg] | half-life at 2 μM [2] [min] | SMILES
7400 | 1030 | – | – | – | – | Cc1cc(-c2c(-c3ccc(F)cc3)nn3c2CN(C(=O)CCN(C)C)CC3)ccn1 [Compound I-6, 3-(dimethylamino)-1-(2-(4-fluorophenyl)-3-(2-methylpyridin-4-yl)-6,7-dihydropyrazolo[1,5-a]pyrazin-5(4H)-yl)propan-1-one]
– | – | 16.3 | 84.9 | 8.74 | 159 | Cc1cc(-c2c(-c3ccc(F)cc3)nn3c2CN(CCO)CC3)ccn1 [Compound I-11, 2-(2-(4-fluorophenyl)-3-(2-methylpyridin-4-yl)-6,7-dihydropyrazolo[1,5-a]pyrazin-5. (4H)-yl)ethan-1-ol]
5200 | 1700 | – | – | – | – | Cc1cc(-c2c(-c3ccc(F)cc3)nn3c2CN(C(=O)C(F)(F)F)CC3)ccn1 [Compound I-16, 2,2,2-trifluoro-1-(2-(4-fluorophenyl)-3-(2-methylpyridin-4-yl)-6,7-dihydropyrazolo [1,5-a]pyrazin-5(4H)-yl)ethan-1-one]
400 | 364 | – | – | – | – | CS(=O)(=O)N1CCn2nc(-c3ccc(F)cc3)c(-c3ccnc(N)n3)c2C1 [Compound I-21, 4-(2-(4-fluorophenyl)-5-(methylsulfonyl)-4,5,6,7-tetrahydropyrazolo[1,5-a]pyrazin-3-yl)pyrimidin-2-amine.]
500 | – | 1040 | 1.33 | 274 | 5.06 | CC(=O)Nc1cc(-c2c(-c3ccc(F)cc3)nn3c2CN(C2CCC2)CC3)ccn1 [Compound I-33, N-(4-(5-cyclobutyl-2-(4-fluorophenyl)-4,5,6,7-tetrahydropyrazolo[1,5-a]pyrazin-3-yl)pyridin-2-yl)acetamide]
700 | – | 532 | 2.61 | 52.5 | 26.4 | COCCN1CCn2nc(-c3ccc(F)cc3)c(-c3ccnc(NC(C)=O)c3)c2C1 [Compound I-40, N-(4-(2-(4-fluorophenyl)-5-(2-methoxyethyl)-4,5,6.7-tetrahydropyrazolo[1,5-a]pyrazin-3-yl)pyridin-2-yl)acetamide]
400 | – | 975 | 1.42 | 47.4 | 29.2 | CC(=O)Nc1cc(-c2c(-c3ccc(F)cc3)nn3c2CN(CCF)CC3)ccn1 [Compound I-42, N-(4-(5-(2-fluoroethyl)-2-(4-fluorophenyl)-4,5,6,7-tetrahydropyrazolo[1,5-a]pyrazin-3-yl)pyridin-2-yl)acetamide]
800 | – | 20.5 | 67.5 | 4.98 | 278 | CC(=O)Nc1cc(-c2c(-c3ccc(F)cc3)nn3c2CN(C2CC(O)C2)CC3)ccn1 (stereo not drawn) [Compound I-44, N-(4-(2-(4-fluorophenyl)-5-(3-hydroxycyclobutyl)-4,5,6,7-tetrahydropyrazolo[1,5-a]pyrazin-3-yl)pyridin-2-yl)acetamide]
– | 28900 | – | – | – | – | CC(=O)N1CCn2nc(-c3ccc(F)cc3)c(-c3cc(N)ncn3)c2C1 [Compound I-63, 1-(3-(6-aminopyrimidin-4-yl)-2-(4-fluorophenyl)-6,7-dihydropyrazolo[1,5-a]pyrazin-5(4H)-yl)ethan-1-one]
2000 | – | 152 | 9.14 | 25.2 | 55 | CC(=O)N1CCn2nc(-c3ccc(F)cc3)c(-c3ccnc(NC(=O)C4(c5ccc(F)cc5)CC4)c3)c2C1 [Compound I-77, N-(4-(5-acetyl-2-(4-fluorophenyl)-4,5,6,7-tetrahydropyrazolo[1,5-a]pyrazin-3-yl)pyridin-2-yl)-1-(4-fluorophenyl)cyclopropane-1-carboxamide]
100 | – | 552 | 2.51 | 112 | 12.3 | CN1CCn2nc(-c3ccc(F)cc3)c(-c3ccnc(NC(=O)Cc4ccc(F)cc4)c3)c2C1 [Compound I-80, 2-(4-fluorophenyl)-N-(4-(2-(4-fluorophenyl)-5-methyl-4,5,6,7-tetrahydropyrazolo [1,5-a]pyrazin-3-yl)pyridin-2-yl)acetamide]
100 | – | 453 | 3.06 | 16.5 | 84.1 | CC(=O)N1CCn2nc(-c3ccc(F)cc3)c(-c3ccnc(NC(=O)C(C)c4ccc(F)cc4)c3)c2C1 (stereo not drawn) [Compound I-82, N-(4-(5-acetyl-2-(4-fluorophenyl)-4,5,6,7-tetrahydropyrazolo[1,5-a]pyrazin-3-yl)pyridin-2-yl)-2-(4-fluorophenyl)propanamide]
700 | – | 665 | 2.09 | 94.3 | 14.7 | CN1CCn2nc(-c3ccc(F)cc3)c(-c3ccnc(NC(=O)C4CC4)c3)c2C1 [Compound I-89, N-(4-(2-(4-fluorophenyl)-5-methyl-4,5,6,7-tetrahydropyrazolo[1,5-a]pyrazin-3-yl)pyridin-2-yl)cyclopropanecarboxamide]
4500 | – | 10 | 138 | 3.74 | 370 | CC(=O)N1CCn2nc(-c3ccc(F)cc3)c(-c3ccnc(NCC(F)(F)F)c3)c2C1 [Compound I-96, 1-(2-(4-fluorophenyl)-3-(2-((2,2,2-trifluoroethyl)amino)pyridin-4-yl)-6,7-dihydropyrazolo [1,5-a]pyrazin-5(4H)-yl)ethan-1-one]
600 | – | 465 | 2.98 | 68.2 | 20.3 | CCC(C)C(=O)Nc1cc(-c2c(-c3ccc(F)cc3)nn3c2CN(C)CC3)ccn1 (stereo not drawn) [Compound I-100, N-(4-(2-(4-fluorophenyl)-5-methyl-4,5,6,7-tetrahydropyrazolo[1,5-a]pyrazin-3-yl)pyridin-2-yl)-2-methylbutanamide]
700 | – | 611 | 2.27 | 29.9 | 46.4 | CC(C)C(=O)Nc1cc(-c2c(-c3ccc(F)cc3)nn3c2CN(C)CC3)ccn1 [Compound I-102, N-(4-(2-(4-fluorophenyl)-5-methyl-4,5,6,7-tetrahydropyrazolo[1,5-a]pyrazin-3-yl)pyridin-2-yl)isobutyramide]
500 | – | 679 | 2.04 | 49.8 | 27.8 | CCC(=O)Nc1cc(-c2c(-c3ccc(F)cc3)nn3c2CN(C)CC3)ccn1 [Compound I-103, N-(4-(2-(4-fluorophenyl)-5-methyl-4,5,6,7-tetrahydropyrazolo[1,5-a]pyrazin-3-yl)pyridin-2-yl)propionamide]
– | 1790 | – | – | – | – | [2H]C([2H])([2H])c1cc(-c2c(-c3ccc(F)cc3)nn3c2CN(C(=O)CCN(C)C)CC3)ccn1 [Compound I-134, 3-(dimethylamino)-1-(2-(4-fluorophenyl)-3-(2-(methyl-d3)pyridin-4-yl)-6,7-dihydropyrazolo[1,5-a]pyrazin-5(4H)-yl)propan-1-one]
